# Where two headings read alike, the source gives them in different places. Marks after values point to notes of the source that are not given here.
# Key:
# [1] = tested on: K562 cells; assay: MTT cytotoxicity assay, FN adhered vs suspension; format: cell-based
# Procedure: Plastic 96-well Immunosorp plates (Nunc, Denmark) are coated with 50 μl (40 μg/ml) FN (Life Technologies) or BSA overnight. Cells are washed once and resuspended in serum-free RPMI 1640, then 2×10^4 (K562) cells are added to each FN coated well. 8×10^3 (K562) cells are added to BSA coated wells. Cells are incubated for 2 hours at 37° C., washed with serum free media, and put back into serum-containing media. Following 24 hours in a tissue culture incubator, drug or vehicle control is added to each well for 90 minutes, media is removed and replaced by drug-free media for 96 hours. In some experiments, the drug is allowed to remain in each well for 96 hours. 50 μl 3-[4,5-Dimethylthiazol-2-yl]-2,5-diphenyltetrazolium bromide; Thiazolyl blue (MTT dye) (Sigma) is added to each well for 4 hours, plates are centrifuged and each well aspirated. Dye is solubilized with 100 μl DMSO and plates are read at 540 nm on an automated microtiter plate reader. A blank well containing only medium and drug is also run as a control in all experiments. IC50 values are calculated by linear regression analysis of percent survival vs. drug concentration.
# The MTT assay is used to detect differences in the drug sensitivity of FN adhered vs. suspension-cultured cells following a 90 minutes or 96 hours (continuous) exposure to either mitoxantrone or melphalan (L-phenylalanine mustard or LPAM). After a 96 hour period in a cell incubator, cell survival is determined by the ability of viable cells to reduce MTT dye to formazan. IC50 values are derived through linear regression of the log-linear dose-response plots for each cell line to each drug. Student's T-test is used to analyze differences in drug response using data collected from at least three different experiments. FIGS. 8A and 8B depict representative continuous exposure experiments using mitoxantrone and LPAM, respectively.
# [2] = tested on: K562 cells; assay: Adhesion of K562 cells to FN in presence of BCR/ABL inhibitor; format: cell-based; conditions: at the concentrations of inhibitor used in cytotoxicity assays
# Procedure: Cellular adhesion to FN is determined. In some experiments, cells are pre-incubated for 15 minutes with P4G9, P1D6, P4C10, B3B11, or isotype antibody controls prior to application to wells.
# The BCR/ABL kinase is believed to be critical to the survival of CML cells through its effects on a number of signal transduction pathways. Inhibitors of this fusion protein show promise as apoptosis-inducing drugs in CML cells. BCR/ABL inhibition by relatively high doses of the tyrphostin AG957 can have negative effects on FN adhesion. At the concentrations of inhibitor used in cytotoxicity assays, the adhesion of K562 cells to FN is not affected by more than 20-40 percent.
# [3] = tested on: BCR/ABL-associated tyrosine kinase activity; assay: Anti-phosphotyrosine Western blotting; conditions: K562 cells, 20 μM, 4 hour treatment
# [4] = tested on: K562 cells; assay: Annexin V apoptosis analysis, FN adhered vs suspension; format: cell-based
# [5] = tested on: 8226/S cells; assay: Adhesion of 8226 cells to fibronectin after bisphosphonate treatment; format: cell-based, human; conditions: 100 micromolar for 1.5 hours before plating
# [6] = tested on: 8226/S myeloma cells; assay: MTT cytotoxicity assay, FN-adhered vs BSA/non-adhered cells; format: cell-based, human; conditions: for IC50: Homo sapiens; for mean difference FN-adhered vs BSA: n=3, 1 hour drug exposure
# [7] = tested on: 8226/S myeloma cells; assay: Annexin V flow cytometry analysis of apoptosis, FN-adhered vs non-adhered; format: cell-based, human
# [8] = tested on: 8226/S; format: cell-based, human
# [9] = tested on: K562/VLA-4 cells; assay: Annexin V apoptosis, FN adhesion with integrin blocking antibodies; format: cell-based; conditions: 100 μM, 90 minutes
# [10] = tested on: K562/pcDNA3.1 cells; assay: as above; format: cell-based; conditions: 100 μM, 90 minutes
# [11] = α4 blocking antibody prior to FN adhesion
# [12] = α5 blocking antibody prior to adhesion
# [13] = 1 uM, 1 hour exposure, Annexin V 24 hours later
compound,measurement,setting,value
COC(=O)c1ccc(NCc2cc(O)ccc2O)cc1 [AG957],IC50,"[1]; FN adhered, continuous exposure (96 hours), read-out: Fibronectin mean IC50",12.9 µM
same,Fold resistance (FN adhered over suspension),[1]; continuous exposure (96 hours),3.6 fold
same,IC50,"[1]; continuous exposure (96 hours), read-out: Suspension mean IC50",3.6 µM
same,effect on adhesion of K562 cells to FN,[2],20-40%
same,BCR/ABL associated tyrosine phosphorylation,[3],completely abrogated
Nc1ccn([C@@H]2O[C@H](CO)[C@@H](O)[C@@H]2O)c(=O)n1 [Ara-C],% Control death,"[4]; 100 μM, cont. exp.",54.9* %
same,FN: mean death,"[4]; 100 μM, cont. exp.",6.2 ± 1.6%
same,Suspension: mean death,"[4]; 100 μM, cont. exp.",11.3 ± 5.5%
O=C(O)CN(CCN(CC(=O)O)CC(=O)O)CC(=O)O [EDTA],effect on adhesion to fibronectin (FN) coated plates,[5],does not significantly affect cellular adhesion
"N[C@@H](Cc1ccc(N(CCCl)CCCl)cc1)C(=O)O [LPAM, L-phenylalanine nitrogen mustard]",IC50,"[6]; 1 h, read-out: mean IC50, cells grown on BSA",30 µM
same,IC50,"[6]; read-out: mean IC50, FN-adhered cells",48 µM
same,mean difference FN-adhered vs BSA,[6],1.7
same,"percentage of apoptotic cells, FN-adhered","[7]; 50 uM, 24 hours",16.53%
same,"percentage of apoptotic cells, non-adhered","[7]; 50 uM, 24 hours",21.5%
same,effect on cell surface integrin expression,[8],no immediate effects
same,IC50,"[1]; Homo sapiens, K562, 1.5 h, read-out: Fibronectin mean IC50",190 µM
same,IC50,"[1]; Homo sapiens, K562, 1.5 h, read-out: Suspension mean IC50",29.3 µM
same,IC50,"[1]; Homo sapiens, K562, 96 h, read-out: Fibronectin mean IC50",57.3 µM
same,IC50,"[1]; Homo sapiens, K562, 96 h, read-out: Suspension mean IC50",25.5 µM
same,Fold resistance (FN adhered over suspension),[1]; continuous exposure (96 hours),2.25 fold
same,% Control death,"[4]; 100 μM, 1 hr",29.3* %
same,FN: mean death,"[4]; 100 μM, 1 hr",11.0 ± 8.3%
same,Suspension: mean death,"[4]; 100 μM, 1 hr",37.5 ± 24.0%
same,% Control death,"[4]; 100 μM, cont. exp.",58.5* %
same,FN: mean death,"[4]; 100 μM, cont. exp.",23.3 ± 6.4%
same,Suspension: mean death,"[4]; 100 μM, cont. exp.",39.8 ± 3.2%
same,level of cytoprotection by FN adhesion (in comparison to drug treated suspension cells),[9]; adhering through α4 and α5,30.0±1.5%
same,level of cytoprotection by FN adhesion,[9]; [11],28.4±5.0%
same,level of cytoprotection by FN adhesion,[9]; [12],20.6±1.9%
same,level of cytoprotection by FN adhesion (in comparison to drug treated suspension cells),[10]; adhered through α5 alone,29.9±5.3%
same,level of cytoprotection by FN adhesion,[10]; [11],29.6±2.3%
same,level of cytoprotection by FN adhesion,[10]; [12],0±11.1%
"O=C1c2c(O)ccc(O)c2C(=O)c2c(NCCNCCO)ccc(NCCNCCO)c21 [Mitoxantrone, mitoxantrone]",Fold resistance (FN adhered over suspension),[1]; 90 min. exposure,3.72 fold
same,Fold resistance (FN adhered over suspension),"[1]; 90 min. exposure, listed as mitoxantrone",approximately 3.7 fold
same,IC50,"[1]; Homo sapiens, K562, 1.5 h, 90 min. exposure, read-out: Suspension mean IC50",0.206 µM
same,IC50,"[1]; Homo sapiens, K562, 1.5 h, FN adhered, 90 min. exposure, read-out: Fibronectin mean IC50",0.767 µM
same,IC50,"[1]; Homo sapiens, K562, FN adhered, continuous exposure (96 hours), read-out: Fibronectin mean IC50",0.327 µM
same,IC50,"[1]; Homo sapiens, K562, continuous exposure (96 hours), read-out: Suspension mean IC50",0.0479 µM
same,Fold resistance (FN adhered over suspension),[1]; continuous exposure (96 hours),6.83 fold
same,Fold resistance (FN adhered over suspension),"[1]; continuous exposure (96 hours), listed as mitoxantrone",6.8 fold
same,% Control death,"[4]; 10 μM, cont. exp.",69.4* %
same,FN: mean death,"[4]; 10 μM, cont. exp.",29.7 ± 6.2%
same,Suspension: mean death,"[4]; 10 μM, cont. exp.",42.8 ± 8.4%
same,% Control death,"[4]; 50 μM, 1 hr",58.3* %
same,FN: mean death,"[4]; 50 μM, 1 hr",27.0 ± 9.4%
same,Suspension: mean death,"[4]; 50 μM, 1 hr",46.3 ± 8.4%
"NCCC(O)(P(=O)(O)O)P(=O)(O)O [Pamidronate, 3-Amino-1-hydroxypropane-1,1-diphosphonic acid]",effect on adhesion to fibronectin (FN) coated plates,[5],effective in preventing FN adhesion
"CC[C@]1(O)C[C@H]2CN(CCc3c([nH]c4ccccc34)[C@@](C(=O)OC)(c3cc4c(cc3OC)N(C=O)[C@H]3[C@@](O)(C(=O)OC)[C@H](OC(C)=O)[C@]5(CC)C=CCN6CC[C@]43[C@@H]65)C2)C1 [VCR, vincristine]",% Control death,"[4]; 10 μM, cont. exp.",70.2%
same,FN: mean death,"[4]; 10 μM, cont. exp.",12.5 ± 2.3%
same,Suspension: mean death,"[4]; 10 μM, cont. exp.",17.8 ± 6.4%
O=P(O)(O)C(O)(Cn1ccnc1)P(=O)(O)O [Zoledronate],effect on adhesion to fibronectin (FN) coated plates,[5],effective in preventing FN adhesion
COc1cccc2c1C(=O)c1c(O)c3c(c(O)c1C2=O)C[C@@](O)(C(=O)CO)C[C@@H]3O[C@H]1C[C@H](N)[C@H](O)[C@H](C)O1 [doxorubicin],Response lower in FN-adhered cells compared to non-adhered controls,"[6]; FIG. 1, one hour drug exposure",12.6 fold
same,IC50,"[6]; 1 h, grown in suspension, one hour drug exposure, representative experiment FIG. 1, read-out: IC50, non-adhered cells",0.085 µM
same,IC50,"[6]; 1 hour drug exposure, n=3, read-out: mean IC50, cells grown on BSA",0.52 µM
same,IC50,"[6]; 24 hour pre-adhesion, 1 hour drug exposure, n=3, read-out: mean IC50, FN-adhered cells",1.63 µM
same,IC50,"[6]; FN-adhered 24 hours prior to one hour drug exposure, representative experiment FIG. 1, read-out: IC50, adhered cells",0.485 µM
same,mean difference FN-adhered vs BSA,[6],6.9
same,survival (mitogenic effect),"[6]; subtoxic concentrations, FN-adhered cells",> 100%
same,"percentage of apoptotic cells, FN-adhered",[7]; [13],16.3%
same,"percentage of apoptotic cells, non-adhered controls",[7]; [13],40.3%
same,effect on cell surface integrin expression,"[8]; acute exposure, wide range of concentrations, 1-48 hours",no immediate effects

# From US20030004140A1, “Methods for modulating cell-adhesion mediated drug resistance” (priority 2000, published 2003)
